SMILES	melting point [°C]
COc1cccc2c1S(=O)(=O)NC(C1CCCCC1)N2 (stereo unspecified)	221 to 223
COc1ccccc1CC(=O)N1C[C@H]2C[C@H](CO)C[C@](O)(c3ccccc3OC)[C@H]2C1 (racemic)	162
CCc1c(C(=O)O)c(C(F)F)nc(C(F)(F)F)c1C(=O)O	237 to 239
CCCCCS(=O)(=O)NC(=O)/C=C/c1ccc(OCCOC)cc1Oc1ncc(-c2ccccc2)cc1C	133 to 134
CCc1ccc(CCc2ccc(-c3ccc(OC(F)(F)F)cc3)cc2)cc1	97
CN(C)CC(=O)Nc1nc(-c2ccco2)c(C(=O)C2CCOCC2)s1	129 to 130
NCC1Cc2cc(C(F)(F)F)cc(-c3cc(F)ccc3F)c2O1 (stereo unspecified)	> 250
FC(F)(F)Sc1[nH]ccc1-c1ccc(Cl)cc1	44 to 46
Nc1nc2c(sc(=O)n2Cc2ccc(Br)cc2)c(=O)[nH]1	> 320
C=CCC1(CC=C)c2cc(-c3ncncn3)ccc2-c2ccc(N(c3ccccc3)c3ccccc3)cc21	235 to 237
O=C(Nc1ccccn1)Nc1cccc2c1C1CC3(CCN1C2=O)SCCS3 (stereo unspecified)	242
N=C(Nc1ccc(Cl)cc1)Nc1ncccc1OCc1ccccc1Cl	162 to 163
Cc1cccc2c1N(CC(=O)N1CC3CCC(CC3)C1)C(=O)C(NC(=O)Nc1cccc(C=O)c1)N=C2c1ccccc1F (stereo unspecified)	237 to 242
CC(=O)NC[C@H]1CN(c2ccc(C3CCN(C(=O)c4ccno4)CC3)c(F)c2)C(=O)O1	290 to 292
CN1CC2c3cccn3Cc3ccccc3N2C(=O)C1=O (stereo unspecified)	178 to 179
CCCc1cc(-c2noc3cc(O)ccc23)c(CC)cc1O	125 to 127
COCCN(C)Cc1c(-c2ccc([N+](=O)[O-])cc2)sc2c1c(=O)n(-c1ccc3c(c1)OCO3)c(=O)n2Cc1c(F)cccc1F	190 to 192
CCCOc1cccc(C2(c3ccncc3)N=C(N)N(C)C2=O)c1 (stereo unspecified)	173 to 175
O=C(c1ccc(-c2cc(Cl)ccc2OCc2ccccc2)cc1C(F)(F)F)N1CCCC1	143 to 144
O=C(Nc1ccc2c(c1)nc1n2CCCC1)c1cc2cccnc2n1Cc1ccccc1	233 to 235
CS(=O)(=O)Nc1cccc(-c2ccc(S(=O)(=O)n3ccc(C=CC(=O)NO)c3)cc2)c1	137 to 148
O=S1(=O)N=C(NC2(CO)CCCC2)Nc2cc(Cl)sc21	213 to 214
CCCCCCCCCCCCNC(=O)c1cc(Br)c(OCCn2cnnn2)c(-c2cccc(OC)c2)c1	100 to 101
CC(=O)c1noc2cc(O)ccc12	159 to 161

SMILES	melting point [°C]
O=C(O)CCc1cn(Cc2ccc(OCc3cccs3)cc2)cc1-c1ccccc1	127 to 128
COC(=O)c1cc(O)c2cc3c(O)cc(C(=O)OC)nc3c(C)c2n1	296
CCCc1nc2c(c(C)c(C)n3nnnc23)n1CC(C)(C)NC(=O)c1ccccc1	221 to 223
CCOC(=O)C1CC2C(=O)N=C(C(C)C)C=C2S1=N (stereo unspecified)	182 to 183
O=Cc1c2ccccc2c(Cl)c2c(Cl)cccc12	167 to 170
COCCN(CCOC)C(=O)c1n[nH]c2c(=O)[nH]c3cc(Cl)ccc3c(=O)c12	207 to 209
O=[N+]([O-])c1cc(NCc2c(F)c(F)c(C(F)(F)F)c(F)c2F)ccc1O	126 to 128
O=S(=O)(NCCC(F)=C(F)F)c1ccc(C(F)(F)F)cc1	68 to 70
CCC12CC(O)C(O)(c3ccccc3)CC1CC(O)c1cc(O)ccc12 (stereo unspecified)	185 to 187
CCOC(=O)C(=O)CC(=O)c1cn(CCCCc2ccccc2)c2ccccc2c1=O	88 to 90
CNC(=O)N1N=C(c2ccc([N+](=O)[O-])cc2)c2cc(OC)c(Br)cc2CC1C (stereo unspecified)	224 to 226
CC1(C)CC(OC(=O)CCl)CC(C)(C)N1OC1CCCCC1	62 to 64
CC(=O)OC1CSC(Oc2cccnc2Cl)C(OC(C)=O)C1OC(C)=O (stereo unspecified)	160
COCCN1CCc2cc(Nc3ncc(Cl)c(Nc4cc(C(N)=O)ccc4OC)n3)c(OC)cc2CC1	218 to 225
Cc1nc(NCc2ccccn2)c2c(-c3ccccc3)csc2n1	110 to 112
OC(CCl)COc1cccc(-c2nc(C(F)(F)F)c[nH]2)c1 (stereo unspecified)	181 to 183
COc1ccc(C=CC2=NNC(C)Cc3cc4c(cc32)OCO4)cc1OC (stereo unspecified)	166 to 168
COc1ccc(C#CC(=Nc2ccc(OC)cc2)N2CCN(Cc3ccccc3)CC2)cc1	161
O=C(CSc1n[nH]c(-c2ccco2)n1)C12CC3CC(CC(C3)C1)C2	177 to 178
Cc1cc2c(nc1C(O)c1cccnc1)CCCCC2 (stereo unspecified)	124 to 126
CCC[C@H](Oc1cc(C)c(-n2cc(C(F)(F)F)cn2)c(C)c1)c1ccc(C(=O)NCCC(=O)O)cc1	157 to 159
Nc1ncc(-c2ccc3c(c2)CCC(NCC(F)(F)F)CC3)c(N)n1 (stereo unspecified)	154 to 156
CCOC(=O)c1nc2cc(I)c(I)cc2[nH]c1=O	275 to 276
O=Cc1c(N2CCNCC2)n(Cc2ccccc2)c2ccccc12	163 to 165

SMILES	melting point [°C]
CCOC(=O)c1c(CN(CC)CC)nc2sc3c(c2c1-c1ccc(OC)c(OC)c1)CCNC3	72 to 75
CCN(CC)C(=O)Nc1ccc(Cn2c(=O)n(C3CCCCC3)c3cc(Cl)ccc32)c(OC)c1	190
O=C(Cc1ccc(Oc2ccc(F)cc2)cc1)NC1(C(=O)O)Cc2ccc(-c3ccc(Cl)cc3)cc2C1 (stereo unspecified)	232 to 234
CCC1N=C(C(N)=O)ON1S(=O)(=O)c1ccccc1Cl (stereo unspecified)	142
CCOC(=O)c1nn(Cc2ccccc2F)c2ncccc12	85
CCCCC(=O)Nc1c(C(=O)c2ccccc2)[nH]c2cc(Cl)ccc12	140 to 143
CCOCc1nc2c(N)nc3cc(N4CCOC4=O)cnc3c2n1CC(C)C	174 to 176
CNC(=S)N(C)Cc1ccc(Cl)nc1	109 to 110
CSCCNC(=O)c1cccc(-c2cccc3c(C)c(Cc4cccc(C(F)(F)F)c4)oc23)c1	138 to 139
CCOC(=O)CCCOc1ccc(C(=O)Nc2ccccc2Sc2ccccc2-c2nnn[nH]2)cc1	173 to 175
COCCOC(=O)CS(=O)C(C)c1ccc(-c2ccccc2F)cc1 (stereo unspecified)	65 to 67
Cc1ccc(C2COc3c(C)c(C)cc(C)c32)cc1 (stereo unspecified)	65 to 66
CCCC(CCC)(CC(=O)O)CC(=O)O	107
CCC(COC)Nc1nc(C)nc(Cl)c1N (stereo unspecified)	128 to 130
CC(C)C(=O)n1ccc(-c2ccc(Oc3ccccc3)cc2)n1	49 to 51
COc1cc(C=C2C(=O)CCc3ccc([N+](=O)[O-])cc32)c([N+](=O)[O-])cc1OC	125
C=CC(=O)N[C@@H](C=O)[C@@H](O)[C@H](O)[C@H](O)CO	124 to 125
O=C(O)CCN1C(=O)c2cccc(NC(=O)c3ccc(Cl)s3)c2C1=O	194
O=S(=O)(Nc1ccc2c(OCc3csc(-c4ccc(Cl)nc4)n3)cccc2c1)C(F)(F)F	154 to 156
O=c1c2cccnc2n(-c2cccc(Cl)c2)c2cc[nH]c12	300 to 301
CN(c1cc2c3c(c1)CCCC3CCC2)c1ncc(C(=O)O)cn1	255 to 256
CON=C(C)c1ccc(Nc2nc3ccccc3c3occc23)cc1	222 to 223
CCCNC(=O)[C@H](C)C[C@H](O)[C@H](CC1CCCCC1)NC(=O)[C@H](Cc1cscn1)NC(=O)[C@@H](CC(=O)N(C)Cc1ccccc1)Cc1ccccc1	115 to 118
Cc1ncc(CN2CCC(COCc3ccccc3)CC2)c(N)n1	106 to 108

SMILES	melting point [°C]
CC(C)OC(=O)C1=C(O)c2ccccc2S(=O)(=O)N1C	102 to 103
COc1cc(Nc2nc3cccc(-c4ccc(S(=O)(=O)N5CCOCC5)cc4)c3o2)cc(OC)c1OC	201 to 203
O=C(NCC1(O)CCCCCC1)c1c(Cl)ccc2nc(N3CC[C@H](NCCO)C3)ccc12	138 to 140
CCCCCCOc1ccc(C=[N+]([O-])CCC)cc1	45
COC(=O)c1ccc(C=CC(=O)N2CCc3c([nH]c4ccccc34)C2c2ccccc2)cc1 (stereo unspecified)	222
CC(C)(C)c1ccc(C(O)(c2ccc(Cl)cc2)c2ncc[nH]2)cc1 (stereo unspecified)	95 to 110
O=C(CC1CCCC1)c1c(-c2ccc3c(Br)c(OCc4nnn[nH]4)ccc3c2)oc2ccccc12	186 to 187
CCOC(=O)c1cnn(-c2ccccc2)c1Br	86 to 89
COc1ccc2cccc(C(CCO)CNC(=O)C3CCC3)c2c1 (stereo unspecified)	113 to 115
Cc1c(NC(=O)OC(C)(C)C)cnn1-c1cccnc1	89 to 91
Cc1cccc(C(CCC(=O)O)Oc2cc(OCc3cccnc3)ccc2C#N)c1C (racemic)	187 to 189
COc1ccc(C(=O)Nc2ccc(F)c(F)c2)cc1NC(=S)Nc1cccc(C(=O)O)c1	221 to 222
C=CCc1c(O)c(C)cc2c1C(C)(C)CC1(CC(C)(C)c3c(cc(C)c(O)c3CC=C)O1)O2	95 to 97
O=c1[nH]c2c(C(F)(F)F)cccc2c(=O)n1CCCN1CC=C(c2ccc(Cl)cc2)CC1	199 to 201
COC(OC)c1ncc[nH]1	122
C=C[C@@H](C)[C@H]1CC[C@H]2[C@@H]3CCC4=CC(=O)CC[C@]4(C)[C@H]3CC[C@]12C	138 to 139
CC(C(=O)NC1=NCCS1)c1ccc(C(=O)c2cccs2)cc1 (stereo unspecified)	186
CCn1c(C)c(C(=O)c2nccnc2C(=O)O)c2ccccc21	212 to 213
BrCc1noc2ccccc12	60 to 62
O=C(CC1(c2ccccc2)CC1)C(=O)Nc1ccc2c(c1)COC2=O	132 to 138
CNC(=O)c1cc(F)ccc1CNC(=O)c1nc2n(c(=O)c1OCc1ccccc1)CCN2c1ccccc1	194 to 195
CS(=O)(=O)c1ccc(C2=C(c3ccccc3)CN(C3CCCCC3)C2=O)cc1	183 to 185
Cc1c(SCCN2CCOCC2)ccnc1CSc1nc2ccccc2n1CCO	141 to 143
Cc1ccncc1-n1nc(C)c(CC(=O)O)c1-c1ccccc1	246
